Test results reported in ChEMBL document CHEMBL4371082.
Calls of active or inactive are those of the source.

How the values were obtained:
[1] = Antioxidant activity assessed as ABTS radical scavenging activity at 20 uM measured at 30 sec interval over 60 mins; assay type: functional
[2] = Antioxidant activity assessed as DPPH free radical scavenging activity at 20 uM; assay type: functional
Saccharomyces cerevisiae [3] = assay: Protection against copy of c-myc-tagged human bax gene induced mitochondrial dysfunction in yeast BC300 assessed as prevention of mitochondrial membrane potential loss in SG liquid medium by JC-10 dye based fluorescence assay; assay type: functional, organism-based
Saccharomyces cerevisiae [4] = assay: Protection against 3-copies of HA-tagged human alpha-syn gene induced oxidative stress in yeast BC300 assessed as reduction in reactive oxygen species level in SG solid agar medium by dihydroethidium dye based fluorescence assay; assay type: functional, organism-based
Saccharomyces cerevisiae [5] = assay: Protection against copy of c-myc-tagged human bax gene induced oxidative stress in yeast BC300 assessed as reactive oxygen species level in SG liquid medium by dihydroethidium dye based fluorescence assay; assay type: functional, organism-based
Saccharomyces cerevisiae [6] = assay: Protection against 3-copies of HA-tagged human alpha-syn gene induced mitochondrial dysfunction in yeast BC300 assessed as prevention of mitochondrial membrane potential loss in SG solid agar medium by JC-10 dye based fluorescence assay; assay type: functional, organism-based

Measured: Activity

O=C1O[C@H]([C@@H](O)CO)C(O)=C1O
active: [1] | [2]

COc1ccc([C@@H](O)CNC(=O)/C=C/c2ccccc2)cc1
active: all assays above
